Experimental data from ChEMBL document CHEMBL1201862, “PubChem BioAssay data set” (2004).
Calls of active or inactive are those of the source.

How the values were obtained:
[1] = molecular target: Tyrosine-protein kinase Blk (Homo sapiens, UniProt P51451); type: functional;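 further: obtained as one member of a kinome-wide kinase assay panel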
[2] = molecular target: cGMP-dependent protein kinase 1 (Homo sapiens, UniProt Q13976); type: functional;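 further: value from a kinome panel screen with PRKG1 as the panel member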
[3] = molecular target: Serine/threonine-protein kinase N2 (Homo sapiens, UniProt Q16513); type: functional
[4] = molecular target: Ribosomal protein S6 kinase alpha-3 (Homo sapiens, UniProt P51812); type: functional;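 further: measured within a kinome-wide profiling panel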
[5] = molecular target: Mitogen-activated protein kinase 1 (Homo sapiens, UniProt P28482); type: functional
[6] = molecular target: Tyrosine-protein kinase FRK (Homo sapiens, UniProt P42685); type: functional;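 further: FRK tested as one member of a kinome panel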
[7] = molecular target: Tyrosine-protein kinase Fer (Homo sapiens, UniProt P16591); type: functional;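 further: FER tested as one member of a kinome panel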
[8] = molecular target: Casein kinase I isoform gamma-1 (Homo sapiens, UniProt Q9HCP0); type: functional;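 further: measured as the CSNK1G1 member of a kinome profiling panel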
[9] = molecular target: 3-phosphoinositide-dependent protein kinase 1 (Homo sapiens, UniProt O15530); type: functional;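 further: value comes from the Navigating the Kinome panel, PDPK1 member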
[10] = molecular target: Lymphokine-activated killer T-cell-originated protein kinase (Homo sapiens, UniProt Q96KB5); type: functional;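 further: value comes from a kinase panel screen in which TOPK was one of the panel members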
[11] = molecular target: Serine/threonine-protein kinase PLK4 (Homo sapiens, UniProt O00444); type: functional;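 further: PLK4 measured as one member of a kinome-wide kinase profiling panel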
[12] = molecular target: Serine/threonine-protein kinase 17A (Homo sapiens, UniProt Q9UEE5); type: functional
ORF 73 = ORF 73 (Human herpesvirus 8, UniProt O40947); assay: KSHV LANA DNA-binding disruption – biochemical, fluorescence polarization, cherry-picked samples, dose response (AID 504725); set-up: species or system Human gammaherpesvirus 8;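 further: fluorescence polarization of a labeled DNA duplex reporting LANA DNA binding; potency is for inhibitors that block LANA binding to the DNA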
LIM domain kinase 1 = LIM domain kinase 1 (Homo sapiens, UniProt P53667); assay: Navigating the Kinome. Panel member name: LIMK1; type: functional
Aurora kinase A = molecular target: T1, Aurora kinase A (Homo sapiens, UniProt O14965); type: functional;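 further: value from the Navigating the Kinome kinase panel profiling, panel entry STK6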
T1 sequence (O14965 whole entry): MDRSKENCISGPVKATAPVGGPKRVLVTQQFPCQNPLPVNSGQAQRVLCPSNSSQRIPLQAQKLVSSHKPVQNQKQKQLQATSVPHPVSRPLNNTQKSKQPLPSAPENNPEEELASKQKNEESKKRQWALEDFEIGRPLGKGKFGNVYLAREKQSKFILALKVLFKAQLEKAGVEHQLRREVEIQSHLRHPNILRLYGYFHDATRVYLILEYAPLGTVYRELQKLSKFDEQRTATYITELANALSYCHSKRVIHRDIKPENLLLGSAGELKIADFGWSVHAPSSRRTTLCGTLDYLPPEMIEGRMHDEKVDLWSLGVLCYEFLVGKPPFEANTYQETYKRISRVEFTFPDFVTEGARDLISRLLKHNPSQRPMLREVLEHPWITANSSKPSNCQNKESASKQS

[13] = molecular target: T2, Sentrin-specific protease 7 (Homo sapiens, UniProt Q9BQF6); type: functional;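 further: Luminescence-based dose-response confirmation of ultra-high-throughput screening hits, measuring inhibition of SENP7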
T2 sequence (Q9BQF6 whole entry): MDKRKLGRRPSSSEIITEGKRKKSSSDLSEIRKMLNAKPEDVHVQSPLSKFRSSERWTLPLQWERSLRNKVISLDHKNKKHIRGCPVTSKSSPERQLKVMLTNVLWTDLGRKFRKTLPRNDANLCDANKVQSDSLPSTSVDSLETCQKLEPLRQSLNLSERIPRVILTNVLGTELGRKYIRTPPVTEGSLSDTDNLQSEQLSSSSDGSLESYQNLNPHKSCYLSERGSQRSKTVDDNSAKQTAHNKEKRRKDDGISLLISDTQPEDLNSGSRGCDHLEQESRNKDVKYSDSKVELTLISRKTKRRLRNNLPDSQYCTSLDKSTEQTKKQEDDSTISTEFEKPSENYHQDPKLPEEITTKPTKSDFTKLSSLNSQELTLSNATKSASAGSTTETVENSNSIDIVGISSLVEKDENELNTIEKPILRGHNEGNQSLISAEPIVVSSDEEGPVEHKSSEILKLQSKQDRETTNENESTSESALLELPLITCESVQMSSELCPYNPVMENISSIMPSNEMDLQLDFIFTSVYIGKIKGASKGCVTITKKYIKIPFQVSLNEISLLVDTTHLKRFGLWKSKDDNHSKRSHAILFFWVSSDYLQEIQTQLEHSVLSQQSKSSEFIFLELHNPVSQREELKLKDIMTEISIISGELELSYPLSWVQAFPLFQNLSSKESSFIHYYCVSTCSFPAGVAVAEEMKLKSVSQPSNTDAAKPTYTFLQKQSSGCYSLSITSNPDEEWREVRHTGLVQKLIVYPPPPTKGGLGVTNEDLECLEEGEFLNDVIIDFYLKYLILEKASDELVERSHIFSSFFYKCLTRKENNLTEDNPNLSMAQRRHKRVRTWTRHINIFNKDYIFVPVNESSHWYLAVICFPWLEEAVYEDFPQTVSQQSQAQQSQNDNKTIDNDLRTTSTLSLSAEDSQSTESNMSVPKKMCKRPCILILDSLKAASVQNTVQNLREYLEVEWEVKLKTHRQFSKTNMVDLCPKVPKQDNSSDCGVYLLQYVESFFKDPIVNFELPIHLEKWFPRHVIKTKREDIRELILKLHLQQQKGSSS

Sequence of 3-phosphoinositide-dependent protein kinase 1 (O15530 whole entry): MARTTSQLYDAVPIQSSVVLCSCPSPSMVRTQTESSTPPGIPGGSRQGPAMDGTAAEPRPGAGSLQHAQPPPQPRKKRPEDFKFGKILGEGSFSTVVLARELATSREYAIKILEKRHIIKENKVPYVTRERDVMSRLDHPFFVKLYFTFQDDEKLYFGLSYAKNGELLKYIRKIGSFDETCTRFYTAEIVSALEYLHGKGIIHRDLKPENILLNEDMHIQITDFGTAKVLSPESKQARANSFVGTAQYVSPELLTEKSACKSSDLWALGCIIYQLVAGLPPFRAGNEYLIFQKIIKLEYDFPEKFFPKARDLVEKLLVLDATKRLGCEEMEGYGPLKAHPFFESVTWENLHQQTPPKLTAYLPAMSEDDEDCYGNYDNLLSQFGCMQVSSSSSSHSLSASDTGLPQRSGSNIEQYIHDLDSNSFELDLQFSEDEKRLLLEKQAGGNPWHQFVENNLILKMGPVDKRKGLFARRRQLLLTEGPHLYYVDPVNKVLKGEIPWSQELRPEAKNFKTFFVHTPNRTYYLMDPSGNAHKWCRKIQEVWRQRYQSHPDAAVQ
Sequence of Casein kinase I isoform gamma-1 (Q9HCP0 whole entry, canonical isoform): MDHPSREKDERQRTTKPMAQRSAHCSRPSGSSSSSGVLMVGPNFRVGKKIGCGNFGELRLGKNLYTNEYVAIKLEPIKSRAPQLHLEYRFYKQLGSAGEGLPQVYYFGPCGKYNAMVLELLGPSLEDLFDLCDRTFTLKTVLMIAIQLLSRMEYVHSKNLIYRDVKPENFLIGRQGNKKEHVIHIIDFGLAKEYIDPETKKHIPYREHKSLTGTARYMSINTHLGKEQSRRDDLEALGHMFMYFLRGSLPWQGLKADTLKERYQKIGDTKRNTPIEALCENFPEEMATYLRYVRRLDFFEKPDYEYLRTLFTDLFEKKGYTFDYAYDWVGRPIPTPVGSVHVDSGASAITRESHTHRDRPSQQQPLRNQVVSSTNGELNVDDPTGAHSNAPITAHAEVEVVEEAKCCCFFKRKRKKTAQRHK
Sequence of Serine/threonine-protein kinase N2 (Q16513 whole entry): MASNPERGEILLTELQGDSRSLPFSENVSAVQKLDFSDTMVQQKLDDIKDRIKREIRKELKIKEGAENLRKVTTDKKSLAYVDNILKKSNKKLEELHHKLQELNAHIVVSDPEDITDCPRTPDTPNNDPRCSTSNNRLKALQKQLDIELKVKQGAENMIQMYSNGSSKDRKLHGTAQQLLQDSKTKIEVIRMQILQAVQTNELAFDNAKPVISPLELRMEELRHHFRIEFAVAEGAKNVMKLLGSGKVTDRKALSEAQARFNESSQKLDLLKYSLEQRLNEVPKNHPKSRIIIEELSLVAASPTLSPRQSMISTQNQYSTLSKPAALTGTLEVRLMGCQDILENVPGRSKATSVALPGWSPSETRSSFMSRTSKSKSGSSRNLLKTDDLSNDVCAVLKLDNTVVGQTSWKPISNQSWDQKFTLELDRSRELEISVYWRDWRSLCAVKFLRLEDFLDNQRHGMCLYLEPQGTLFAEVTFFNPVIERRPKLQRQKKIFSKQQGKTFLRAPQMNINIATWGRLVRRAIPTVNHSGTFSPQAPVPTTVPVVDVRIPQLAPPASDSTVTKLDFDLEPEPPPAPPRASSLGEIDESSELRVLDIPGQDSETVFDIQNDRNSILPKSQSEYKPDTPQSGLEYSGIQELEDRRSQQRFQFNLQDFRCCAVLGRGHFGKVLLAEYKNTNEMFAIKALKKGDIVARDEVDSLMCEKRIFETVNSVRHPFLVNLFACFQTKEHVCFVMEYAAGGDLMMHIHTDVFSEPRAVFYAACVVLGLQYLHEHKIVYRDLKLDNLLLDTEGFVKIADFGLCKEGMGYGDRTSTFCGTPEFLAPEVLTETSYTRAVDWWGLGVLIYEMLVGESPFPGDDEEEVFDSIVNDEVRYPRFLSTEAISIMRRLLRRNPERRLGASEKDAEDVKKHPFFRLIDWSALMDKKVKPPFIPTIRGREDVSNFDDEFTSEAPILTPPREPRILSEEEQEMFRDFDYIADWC
Sequence of Mitogen-activated protein kinase 1 (P28482 whole entry): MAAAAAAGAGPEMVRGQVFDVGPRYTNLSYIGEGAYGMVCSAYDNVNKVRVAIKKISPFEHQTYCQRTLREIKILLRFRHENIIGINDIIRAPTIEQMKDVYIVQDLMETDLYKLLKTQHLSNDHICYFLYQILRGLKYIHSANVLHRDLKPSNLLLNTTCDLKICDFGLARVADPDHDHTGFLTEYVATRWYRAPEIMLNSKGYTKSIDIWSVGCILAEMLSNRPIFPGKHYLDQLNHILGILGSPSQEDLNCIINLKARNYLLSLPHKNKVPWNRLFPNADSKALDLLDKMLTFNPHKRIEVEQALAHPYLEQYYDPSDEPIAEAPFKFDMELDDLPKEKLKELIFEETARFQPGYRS
Sequence of Serine/threonine-protein kinase 17A (Q9UEE5 whole entry): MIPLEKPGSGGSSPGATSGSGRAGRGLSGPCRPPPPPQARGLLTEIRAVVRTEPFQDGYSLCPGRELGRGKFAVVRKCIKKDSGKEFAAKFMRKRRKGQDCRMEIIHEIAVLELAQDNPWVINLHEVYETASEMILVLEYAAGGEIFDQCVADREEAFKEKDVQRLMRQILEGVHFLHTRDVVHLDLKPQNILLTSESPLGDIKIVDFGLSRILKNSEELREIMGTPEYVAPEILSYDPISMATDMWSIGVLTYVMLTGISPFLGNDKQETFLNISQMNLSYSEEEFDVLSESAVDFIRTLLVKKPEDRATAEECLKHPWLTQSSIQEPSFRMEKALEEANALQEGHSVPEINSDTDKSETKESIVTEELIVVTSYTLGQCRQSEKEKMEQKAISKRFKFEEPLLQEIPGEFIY
Sequence of Tyrosine-protein kinase Fer (P16591 whole entry, canonical isoform): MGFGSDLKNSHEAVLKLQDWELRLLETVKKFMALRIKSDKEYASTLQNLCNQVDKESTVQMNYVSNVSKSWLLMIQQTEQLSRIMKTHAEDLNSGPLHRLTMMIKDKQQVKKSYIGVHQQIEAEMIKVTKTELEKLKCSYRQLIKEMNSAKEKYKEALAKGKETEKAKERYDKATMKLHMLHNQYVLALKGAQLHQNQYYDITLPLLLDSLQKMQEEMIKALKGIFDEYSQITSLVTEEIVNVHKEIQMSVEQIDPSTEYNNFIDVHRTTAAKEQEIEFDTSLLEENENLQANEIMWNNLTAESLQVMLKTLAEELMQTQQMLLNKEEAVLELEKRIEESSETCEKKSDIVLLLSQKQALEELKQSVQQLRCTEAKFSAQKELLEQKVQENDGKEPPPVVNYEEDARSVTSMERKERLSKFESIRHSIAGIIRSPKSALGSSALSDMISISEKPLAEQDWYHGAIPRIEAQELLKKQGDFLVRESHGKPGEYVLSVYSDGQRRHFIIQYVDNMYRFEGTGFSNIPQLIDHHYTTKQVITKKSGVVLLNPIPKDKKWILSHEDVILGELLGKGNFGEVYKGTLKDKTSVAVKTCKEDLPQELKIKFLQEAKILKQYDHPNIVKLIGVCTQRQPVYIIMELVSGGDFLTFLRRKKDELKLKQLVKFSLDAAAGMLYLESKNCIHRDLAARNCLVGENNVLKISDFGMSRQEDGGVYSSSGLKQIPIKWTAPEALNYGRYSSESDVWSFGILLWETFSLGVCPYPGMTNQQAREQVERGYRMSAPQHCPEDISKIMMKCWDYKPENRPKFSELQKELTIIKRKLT
Sequence of cGMP-dependent protein kinase 1 (Q13976 whole entry): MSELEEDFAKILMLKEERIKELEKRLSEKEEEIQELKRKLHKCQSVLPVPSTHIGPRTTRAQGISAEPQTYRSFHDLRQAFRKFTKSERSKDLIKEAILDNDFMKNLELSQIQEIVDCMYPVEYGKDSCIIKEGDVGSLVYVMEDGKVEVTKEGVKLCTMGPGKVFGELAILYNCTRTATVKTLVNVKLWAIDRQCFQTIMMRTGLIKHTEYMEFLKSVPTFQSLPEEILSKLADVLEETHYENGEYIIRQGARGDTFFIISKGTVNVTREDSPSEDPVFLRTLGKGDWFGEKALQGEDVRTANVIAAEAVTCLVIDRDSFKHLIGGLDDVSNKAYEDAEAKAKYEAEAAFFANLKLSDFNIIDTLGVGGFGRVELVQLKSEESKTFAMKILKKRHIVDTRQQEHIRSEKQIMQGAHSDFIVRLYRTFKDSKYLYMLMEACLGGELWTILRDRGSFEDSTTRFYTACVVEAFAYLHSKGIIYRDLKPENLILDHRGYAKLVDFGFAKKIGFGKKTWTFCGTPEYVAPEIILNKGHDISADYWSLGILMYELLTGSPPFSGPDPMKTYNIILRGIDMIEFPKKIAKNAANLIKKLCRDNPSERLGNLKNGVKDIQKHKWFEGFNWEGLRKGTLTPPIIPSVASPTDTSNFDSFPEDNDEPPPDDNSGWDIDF
Sequence of Tyrosine-protein kinase FRK (P42685 whole entry): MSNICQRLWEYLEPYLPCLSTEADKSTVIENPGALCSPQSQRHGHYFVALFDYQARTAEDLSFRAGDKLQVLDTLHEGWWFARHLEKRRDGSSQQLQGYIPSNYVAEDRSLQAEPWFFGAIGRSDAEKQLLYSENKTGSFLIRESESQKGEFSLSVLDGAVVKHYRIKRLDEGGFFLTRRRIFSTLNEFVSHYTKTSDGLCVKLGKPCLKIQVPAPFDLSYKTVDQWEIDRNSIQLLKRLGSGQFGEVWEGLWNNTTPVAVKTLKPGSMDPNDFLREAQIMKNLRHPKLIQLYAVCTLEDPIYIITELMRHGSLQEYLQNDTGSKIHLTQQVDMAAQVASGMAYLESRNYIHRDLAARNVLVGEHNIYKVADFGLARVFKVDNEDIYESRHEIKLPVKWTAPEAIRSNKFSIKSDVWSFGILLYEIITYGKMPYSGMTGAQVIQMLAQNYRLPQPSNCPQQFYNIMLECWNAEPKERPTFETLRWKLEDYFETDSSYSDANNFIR

Compound: OC1CCC(Nc2nc(Cl)cc(-c3c[nH]c4ncccc34)n2)CC1 (stereo not given)
- Ki [1]: > 1580 nM (inactive)
- Ki [2]: 100 nM (active)
- pKi [2]: 7
- Ki [3]: 7.94 nM (active)
- pKi [3]: 8.1
- Ki [4]: 100 nM (active)
- pKi [4]: 7
- Ki [5]: 50.1 nM (active)
- pKi [5]: 7.3
- Ki [6]: 398 nM (active)
- pKi [6]: 6.4
- Ki [7]: 200 nM (active)
- pKi [7]: 6.7
- Ki [8]: 316 nM (active)
- pKi [8]: 6.5
- Ki [9]: 501 nM (active)
- pKi [9]: 6.3
- Ki [10]: 3160 nM (active)
- Ki [11]: > 3980 nM (inactive)
- Ki [12]: 39.8 nM (active)
- pKi [12]: 7.4

Compound: CCN(CC)CCCC(C)n1c2nc(=O)[nH]c(=O)c-2nc2cc(Cl)ccc21 (stereo not given)
- AC50 (ORF 73): 370 nM (active)

Compound: COc1cccc(CNC(=O)c2cnc(-c3ccncc3)nc2)c1
- Ki (LIM domain kinase 1): > 3160 nM (inactive)
- Ki (Aurora kinase A): > 1580 nM (inactive)

Compound: O=C(COC(=O)c1ccc([N+](=O)[O-])s1)Nc1ccc(F)cc1
- IC50 [13]: 6290 nM (active)
